In PubChem BioAssay (NCI):
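Method: 48-hour compound exposure of cells in 96-well plates, five concentrations, linear interpolation of endpoints. GI50: concentration for 50% inhibition of growth. Definition used: TGI = concentration required for complete inhibition of growth.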

How the values were obtained:
Test in all cases: NCI tumour cell line growth inhibition, 48 h
[1] = test system: HS 578T breast
[2] = test system: OVCAR-8 ovarian
[3] = test system: MOLT-4 leukemia
[4] = test system: CAKI-1 renal
[5] = test system: TK-10 renal
[6] = test system: HOP-92 NSCLC

COc1ccc(C2SCC(=O)N2c2ccc(-n3c(-c4ccccc4)nc4ccccc4c3=O)cc2)cc1OC (stereo unspecified)
TGI [1]: > 100 µM | TGI [2]: > 100 µM | TGI [3]: > 100 µM | TGI [4]: > 100 µM | TGI [5]: > 100 µM

N#CCCN(CCC#N)c1ccc(C(N=Nc2ccccc2)=Nc2ccccc2)cc1
TGI [1]: > 100 µM | TGI [2]: > 100 µM | TGI [3]: > 100 µM | TGI [4]: > 100 µM | TGI [6]: > 100 µM | TGI [5]: > 100 µM

O=[N+]([O-])c1ccc(C2=NOC(c3ccccc3F)N2C23CC4CC(CC(C4)C2)C3)cc1 (stereo unspecified)
TGI [1]: > 100 µM | TGI [2]: > 100 µM | TGI [3]: > 100 µM | TGI [4]: > 100 µM | TGI [6]: > 100 µM | TGI [5]: > 100 µM

CCCc1cc(=O)oc2c3c(c4c(c12)OC(C)(C)C=C4)O[C@@H](C)[C@H](C)C3=O
TGI [1]: 38.7 µM | TGI [2]: 45.4 µM | TGI [3]: 26.8 µM | TGI [4]: 73.9 µM | TGI [5]: 44.3 µM

COc1ccc(N2C(=O)C3ON(C(C(N)=O)c4ccccc4)C(c4ccc(-c5ccccc5)cc4)C3C2=O)cc1 (stereo unspecified)
TGI [1]: > 50 µM | TGI [2]: > 50 µM | TGI [3]: > 50 µM | TGI [4]: > 50 µM | TGI [5]: > 50 µM

CCCCCCOc1ccc(C(=O)NOCc2ccccc2)cc1
TGI [1]: > 100 µM | TGI [2]: > 100 µM | TGI [3]: > 100 µM | TGI [4]: > 100 µM | TGI [6]: > 100 µM | TGI [5]: > 100 µM

O=c1oc2ccccc2c(O)c1C(c1ccco1)c1c(O)c2ccccc2oc1=O
TGI [1]: > 100 µM | TGI [2]: 82 µM | TGI [3]: 62.1 µM | TGI [4]: 42.4 µM | TGI [6]: > 100 µM | TGI [5]: 80.2 µM

CC1OC(OC2C(O[C@H]3CC[C@@]4(C)[C@@H](CC[C@@H]5[C@@H]4CC[C@]4(C)[C@@H]6[C@H](C[C@@H]54)O[C@]4(CC[C@@H](C)CO4)[C@H]6C)C3)OC(CO)C(OC3OC(CO)C(O)C(OC4OCC(O)C(O)C4O)C3OC3OCC(O)C(O)C3O)C2O)C(O)C(O)C1O (stereo partly specified)
TGI [1]: 2.74 µM | TGI [2]: 3.25 µM | TGI [4]: 2.53 µM | TGI [6]: 3.11 µM

CCOC(=O)CCC(NC(=O)c1ccc(Oc2nc3ccc(C(F)(F)F)cc3nc2-c2ccccc2)cc1)C(=O)OCC (stereo unspecified)
TGI [1]: 9.34 µM | TGI [2]: > 57.7 µM | TGI [3]: > 100 µM | TGI [4]: 26.9 µM | TGI [6]: 98.4 µM | TGI [5]: > 100 µM

CON(C)C(C#N)=C(C#N)C#N
TGI [1]: > 10 µM | TGI [2]: > 10 µM | TGI [3]: > 10 µM | TGI [4]: > 10 µM | TGI [5]: > 10 µM

O=[N+]([O-])c1cccc2nc3ccccc3c(NCCc3cccc[n+]3[O-])c12
TGI [1]: 0.299 µM | TGI [2]: 0.302 µM | TGI [4]: 0.901 µM | TGI [6]: < 0.0507 µM | TGI [5]: 0.225 µM

CN1CN(c2ccccc2)C2(CCN(CCCSc3ccccc3NC(=O)/C=C/c3ccccc3)CC2)C1=O
TGI [1]: 15 µM | TGI [2]: 32.6 µM | TGI [3]: 7 µM | TGI [4]: > 26.5 µM | TGI [5]: 34.4 µM

COC(=O)C(O)P(=O)(OC)OC (stereo unspecified)
TGI [1]: > 100 µM | TGI [2]: > 100 µM | TGI [3]: > 100 µM | TGI [4]: > 100 µM | TGI [6]: > 100 µM

Cn1c(=O)cc(NCc2ccc(Cl)cc2)[nH]c1=O
TGI [1]: 61.3 µM | TGI [2]: > 100 µM | TGI [4]: > 100 µM | TGI [6]: 45 µM | TGI [5]: > 100 µM

O=c1[nH]c(=O)n(C2CC(O)C(CO)O2)cc1OCCCc1ccccc1 (stereo unspecified)
TGI [1]: > 100 µM | TGI [2]: > 100 µM | TGI [3]: > 100 µM | TGI [4]: > 100 µM | TGI [5]: > 100 µM

COc1ccc(N=C(C)c2ccncc2)cc1
TGI [1]: > 100 µM | TGI [2]: > 100 µM | TGI [3]: > 100 µM | TGI [4]: > 100 µM | TGI [6]: > 100 µM | TGI [5]: > 100 µM

CC(C)(C)N(Cc1ccc2c(c1)OCO2)C(=O)/C=C\S(=O)c1ccccc1 (stereo unspecified)
TGI [1]: 6.36 µM | TGI [2]: 6.44 µM | TGI [3]: > 45.4 µM | TGI [4]: 15.1 µM | TGI [6]: 8.18 µM | TGI [5]: 17 µM

CC(OC(=O)NCn1cc(-c2ccccc2)nn1)c1ccccc1 (stereo unspecified)
TGI [2]: > 100 µM | TGI [3]: 47.4 µM | TGI [4]: > 100 µM | TGI [6]: > 100 µM | TGI [5]: > 100 µM

CC(C)NC(=O)CN1CCN(C2=CC(=O)c3c(O)ccc(O)c3C2=O)CC1
TGI [1]: 62.5 µM | TGI [2]: > 54 µM | TGI [3]: > 100 µM | TGI [4]: > 60.7 µM | TGI [6]: 38.3 µM | TGI [5]: 31.5 µM

Cc1ccc(-c2c(C#N)c(S)n(NS(=O)(=O)c3ccc(C)cc3)c(=O)c2C#N)cc1
TGI [2]: 41.8 µM | TGI [3]: > 100 µM | TGI [4]: 74.3 µM | TGI [6]: > 100 µM | TGI [5]: 50.5 µM

CC(C)C1(C)N=C(C(F)(F)F)c2cc(C(=O)C(F)(F)F)c3ccccc3c2N1 (stereo unspecified)
TGI [1]: 11 µM | TGI [2]: 17.6 µM | TGI [3]: 18.1 µM | TGI [4]: 9.74 µM | TGI [5]: 15.5 µM

CN(NC(=O)CCCl)C1=NCCN1
TGI [1]: > 100 µM | TGI [2]: > 100 µM | TGI [3]: > 100 µM | TGI [6]: > 100 µM | TGI [5]: > 100 µM

COc1cc(CCCOC(=O)/C=C/c2ccc(O)c(O)c2)cc(O)c1O
TGI [1]: > 100 µM | TGI [2]: > 100 µM | TGI [3]: > 100 µM | TGI [4]: > 100 µM | TGI [5]: > 100 µM

Cc1cccc2c1Oc1ccccc1C2NC(=O)c1ccc([N+](=O)[O-])cc1 (stereo unspecified)
TGI [1]: 82.6 µM | TGI [2]: > 100 µM | TGI [3]: > 100 µM | TGI [4]: > 100 µM | TGI [6]: > 100 µM | TGI [5]: > 100 µM

CC1(C)CC(=O)C2=C(C1)c1c(ccc3ccccc13)NC2c1cn(Cc2ccc(Cl)cc2)c2ccccc12 (stereo unspecified)
TGI [1]: > 100 µM | TGI [2]: > 100 µM | TGI [3]: > 100 µM | TGI [4]: > 100 µM | TGI [6]: > 100 µM | TGI [5]: > 100 µM

CCCc1c(OC)c(=O)c2c(OC)cc(OC)c3c4c(OC)cc(OC)c5c(=O)c(OC)c(CCC)c(c1c23)c54
TGI [2]: 40.8 µM | TGI [3]: 35 µM | TGI [4]: 27.7 µM | TGI [6]: 23.4 µM | TGI [5]: 36.8 µM

CC1(C)N=C(C(N)=O)c2ncn(-c3ccccc3)c2N1
TGI [1]: > 100 µM | TGI [2]: > 100 µM | TGI [4]: > 100 µM | TGI [5]: > 100 µM

CC(=O)OCC1OC(n2c3c(c(-c4ccco4)c(C#N)c2=S)CCC3)C(OC(C)=O)C(OC(C)=O)C1OC(C)=O (stereo unspecified)
TGI [1]: > 100 µM | TGI [3]: 45.3 µM | TGI [4]: > 100 µM | TGI [6]: 69 µM | TGI [5]: > 100 µM

O=C1CN2Cc3cc(N4CCOCC4)ccc3N=C2N1
TGI [1]: > 100 µM | TGI [2]: > 100 µM | TGI [3]: > 100 µM | TGI [4]: > 100 µM | TGI [6]: > 100 µM | TGI [5]: > 100 µM

O=C1/C(=C\c2cccc(Oc3ccccc3)c2)S(=O)(=O)C(c2ccccc2)N1c1ccc(Cl)cc1 (stereo unspecified)
TGI [2]: 37.3 µM | TGI [3]: 33.1 µM | TGI [4]: 84.2 µM | TGI [6]: 30.8 µM | TGI [5]: > 100 µM

O=c1cc(N2CCOCC2)[nH]c(=O)n1-c1cccc(C(F)(F)F)c1
TGI [1]: > 100 µM | TGI [2]: > 100 µM | TGI [3]: > 100 µM | TGI [4]: > 100 µM | TGI [6]: > 100 µM | TGI [5]: > 100 µM

CC1(C2(C)OC(=O)c3ccccc32)OC(=O)c2ccccc21 (stereo unspecified)
TGI [1]: > 100 µM | TGI [2]: > 100 µM | TGI [3]: > 100 µM | TGI [4]: > 100 µM | TGI [6]: > 100 µM | TGI [5]: > 100 µM

Cc1cccc2c1Oc1cc(Cl)ccc1C2NC(=O)CCN1CCN(CCO)CC1 (stereo unspecified)
TGI [2]: 26.3 µM | TGI [3]: 38.9 µM | TGI [6]: 22.8 µM

CCCCC(=O)Nc1ccc2cc(C(=O)OC)c(ON3C(=O)c4ccccc4C3=O)nc2n1
TGI [2]: 58.4 µM | TGI [3]: > 100 µM | TGI [4]: 52.4 µM | TGI [6]: 65.3 µM | TGI [5]: 46.2 µM

O=C1CCC[C@]2(CCC[C@@H](O)C2)N1
TGI [1]: > 100 µM | TGI [2]: > 100 µM | TGI [4]: > 100 µM | TGI [5]: > 100 µM

CC1CC[C@@]2(OC1)OC1C[C@H]3[C@@H]4C/C(=N\N(C)C)[C@@]5(O)CC(O)CC[C@]5(C)[C@H]4CC[C@]3(C)C1[C@@H]2C (stereo partly specified)
TGI [1]: > 100 µM | TGI [3]: > 100 µM | TGI [6]: > 100 µM | TGI [5]: > 100 µM

CCNC1(c2cccc(C)c2)OC(C)(C)c2cccc3cccc1c23 (stereo unspecified)
TGI [1]: 44.3 µM | TGI [2]: 36.5 µM | TGI [4]: 48.1 µM | TGI [6]: 22.4 µM | TGI [5]: 38.3 µM

COc1cc(-c2oc3c(OC)c(O)c(OC)c(O)c3c(=O)c2OC)cc(O)c1OC
TGI [2]: > 100 µM | TGI [3]: > 100 µM | TGI [4]: > 100 µM | TGI [6]: > 100 µM | TGI [5]: > 100 µM

Nc1c(-c2nc3ccccc3s2)c2ccc([N+](=O)[O-])cc2c(=O)n1-c1cccc(C(=O)O)c1
TGI [1]: > 100 µM | TGI [2]: 68.6 µM | TGI [4]: 80.3 µM | TGI [6]: 72.9 µM | TGI [5]: 52.3 µM

CN(C)c1ccc(/C=C(\C#N)C(N)=C(C#N)C#N)cc1
TGI [1]: > 100 µM | TGI [2]: > 100 µM | TGI [4]: > 100 µM | TGI [6]: > 100 µM | TGI [5]: > 100 µM

Cc1c(CCOC=O)c(=O)[nH]c2nncn12
TGI [1]: > 100 µM | TGI [2]: > 100 µM | TGI [3]: > 100 µM | TGI [6]: > 100 µM | TGI [5]: > 100 µM

O=C1C(/C=C/c2ccc(Cl)cc2)=NNC2N1N=C1NC(=O)C3(NN12)c1ccccc1-c1ccccc13 (stereo unspecified)
TGI [1]: > 100 µM | TGI [2]: > 100 µM | TGI [4]: > 100 µM | TGI [6]: > 100 µM | TGI [5]: > 100 µM

NCCCNc1nc2ccccc2c2c(=O)c3cc(C(F)(F)F)ccc3sc12
GI50 [4]: 1.51 µM | TGI [4]: 2.84 µM | GI50 [6]: 1.37 µM | TGI [6]: 2.85 µM

COc1cc(C2c3cc4c(cc3OC(Nc3ccc(C(=O)O)cc3)C2C)OCO4)cc(OC)c1OC (stereo unspecified)
TGI [2]: > 100 µM | TGI [3]: 25.8 µM | TGI [4]: 0.761 µM | TGI [6]: > 74.6 µM | TGI [5]: > 100 µM

COc1ccc2nc3ccc(OC)cc3c(S(=O)(=O)Cc3ccc([N+](=O)[O-])cc3)c2c1
TGI [2]: > 100 µM | TGI [3]: > 100 µM | TGI [4]: > 100 µM | TGI [6]: > 100 µM | TGI [5]: > 100 µM
